In data set [1] the test system is variety of microorganisms. The following applies: cited from earlier work.
The next data set has as its system various bacteria. To be noted: cited from earlier work.
A short description of data set [2]: Serum concentration of florfenicol after subcutaneous injection to an animal. In kind it is in vivo. The text has this:
A lower Cmax advantageously avoids undesirable side-effects.

The conditions of data set [3]: added to serum in vitro; compared with florfenicol butyrate.

Structures are written as SMILES.

Turning to `CS(=O)(=O)c1ccc([C@@H](O)[C@@H](CF)NC(=O)C(Cl)Cl)cc1` [florfenicol], the activity against microorganisms entry in data set [1] (Citrobacter, Proteus mirabilis, Proteus sp., Shigella, Salmonella, Providencia, Bacteroides, Staphylococcos aureus, Enterococci, Pasteurlla haemolytica, Pasteurella multocida, Haemophilus somnus, Haemophilus influenza) is “active”. Also, the “resistance of microorganisms to the substance” value in data set [1] (Serratia marcescens, Pseudomonas aeruginosa, Acinetobacter) was “resistant”. Besides, the “typical minimum inhibitory concentrations (MICs)” value in the data set on various bacteria is 0.3 to 1 µg/mL.
On to `COCCOCC(=O)O[C@H](c1ccc(S(C)(=O)=O)cc1)[C@@H](CF)NC(=O)C(Cl)Cl` [formula (Ia)], for which the “Cmax for the serum concentration of florfenicol” value in data set [2] (administered to an animal, compared with florfenicol) is listed as “lower than the Cmax for the serum concentration of florfenicol when florfenicol is administered”. Further, in data set [2] (subcutaneous injection, compared with florfenicol or florfenicol butyrate), the “time period for which serum concentration of florfenicol is therapeutically effective” value is on record as “longer”. Besides, the “rate of hydrolysis in serum” value in data set [3] is on record as “hydrolyzed faster than florfenicol butyrate”.
For the molecule `CN(C)CC(=O)OC(c1ccc(S(C)(=O)=O)cc1)C(CF)NC(=O)C(Cl)Cl` (stereo not shown) [formula (Ib)], the “pharmacokinetic and pharmacodynamic profile” value in data set [2] (when administered to an animal, expected, compared with florfenicol and other florfenicol esters) was “superior pharmacokinetic and pharmacodynamic profile”.

The record behind these values is patent US7550625B2, “Esters of florfenicol” (priority 2007, dated 2009).
